Measurements from US9497963B2, “Methods and compositions for control of gypsy moth, Lymantria dispar” (Simon Fraser University, priority 2008, dated 2016).

Key:
Design in all cases: species or system Lymantria dispar
male gypsy moth antenna = assay: Coupled gas chromatographic-electroantennographic detection (GC-EAD); settings: EAD peak size and shape (sharp/broad)
How it was run: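 GC column effluent split between flame ionization detector and an excised male moth antenna held between saline-filled glass capillary electrodes, tip removed, in a warm air stream. Antennal potentials assigned to compounds by matching retention times with FID peaks.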

L. dispar PBP 1 = assay: Pheromone-binding protein (PBP) ligand binding assay, PBP1
How it was run: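 L. dispar PBP1 or PBP2 equilibrated overnight in buffer with test compound or mini-library; free ligand removed by size-exclusion chromatography on P2 gel. Total and protein-bound ligand extracted and quantified by GC-MS per component; % bound = 100×[PBP·L]/[L]tot.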

L. dispar PBP 2 = assay: Pheromone-binding protein (PBP) ligand binding assay, PBP2
Method: A. The protein and ligand are incubated in buffer overnight. B. For half of the incubation mixture, the free ligand (L) is separated from the protein-bound ligand (P.L) by size-exclusion chromatography on P2 Gel (BioRad, exclusion limit 2000 Da). The protein elutes from the small column bed, with its ligand bound (see Examples and […] et al. 2000; Staddon and Everton 1980), while the free ligand is retained on the column ([…] et al. 2000). C. […] The extract from the filtrate (B) contains the protein-bound ligand and the extract from the incubation mixture (A) contains all the ligand (bound and free) present in the aqueous phase. The extracts are analyzed by GC-MS, to obtain values for total ligand in solution (L+P.L) and for protein-bound ligand (P.L). These can then be used to calculate % bound (Table 3). These assays were performed as described in FIG. 3 and as follows: L. dispar PBP 1 or PBP 2 was incubated with the test compound or mini-library. The PBP and the ligand(s) (L) were left to equilibrate (eq 2) overnight. The non-bound ligand was then separated from the protein-bound material (PBP.L) by size-exclusion chromatography. By determining the total ligand in solution at equilibrium (eq. 3) and the protein-bound ligand, it is possible to estimate the percentage of ligand bound to the protein at equilibrium (eq. 4). […] This binding assay has been validated extensively in previous studies ([…] et al. 2000). The components of each mini-library separated cleanly by GC, so it was possible to monitor binding of individual components. PBP+L⇄PBP·L (eq. 2) [L]tot=[L]+[PBP·L] (eq. 3) % bound=100×[PBP·L]/[L]tot (eq. 4) Results: The members of each mini-library separated cleanly by GC, therefore it was possible to monitor binding of individual members to PBP1 or PBP2, the two known PBPs in the gypsy moth, by extraction from the aqueous incubation mixture, followed by GC analysis of the extract (FIG. 3).

[1] = member tested within library 3c{1, 1-5}
[2] = tested as single compound, means ± S.E., 4 replicates
[3] = member tested within library 3c{3, 1-5}
[4] = member tested within library 3c{3, 1-5}, Nd = not detected in GC-MS
[5] = member tested within library 3c{2, 1-5}
[6] = member tested within library 3c{5, 1-5}

| PBP1 (% bound) (L. dispar PBP 1; [1]) | PBP1 (% bound) (L. dispar PBP 1; [2]) | PBP2 (% bound) (L. dispar PBP 2; [1]) | PBP2 (% bound) (L. dispar PBP 2; [2]) | PBP1 (% bound) (L. dispar PBP 1; [3]) | PBP2 (% bound) (L. dispar PBP 2; [4]) | PBP1 (% bound) (L. dispar PBP 1; [5]) | PBP2 (% bound) (L. dispar PBP 2; [5]) | PBP1 (% bound) (L. dispar PBP 1; [6]) | PBP2 (% bound) (L. dispar PBP 2; [6]) | Structure (SMILES) | GC-EAD activity (male gypsy moth antenna) |
| --- | --- | --- | --- | --- | --- | --- | --- | --- | --- | --- | --- |
| 24 ± 0.3% | 40 ± 2.5% | 19 ± 0.9% | 13 ± 2.1% |  |  |  |  |  |  | COc1ccc(OC)cc1 [3c{1,1}, 1,4-Dimethoxy benzene] | + sharp |
| 7 ± 0.5% |  | 5 ± 2.1% |  | 13 ± 0.3% | 7 ± 0.2% |  |  |  |  | CCCOc1ccc(OC)cc1 [3c{1,3}, 1-methoxy-4-propoxy-benzene] | + sharp |
|  | 28 ± 0.1% |  | 19 ± 0.2% |  |  | 14 ± 0.5% | 33 ± 0.6% |  |  | CCOc1ccc(OCC)cc1 [3c{2,2}, 1,4-Diethoxy benzene] | Trace |
|  |  |  |  | 13 ± 0.3% | 6 ± 0.2% | 10 ± 0.3% | 22 ± 0.3% |  |  | CCCOc1ccc(OCC)cc1 [3c{2,3}, 1-ethoxy-4-propoxy benzene] | None |
|  | 15 ± 0.7% |  | 5 ± 0.2% | 4 ± 0.3% | 3 ± 0.1% |  |  |  |  | CCCOc1ccc(OCCC)cc1 [3c{3,3}, 1,4-Dipropoxy benzene] | None |
|  | 9 ± 0.7% |  | 8 ± 0.2% |  |  |  |  | 5 ± 0.1% | 1 ± 0.1% | CC(C)CCOc1ccc(OCCC(C)C)cc1 [3c{5,5}, 1,4-Di-(3-methyl-butyloxy) benzene] | None |
